Assay results from patent publication US20100029654A1, “CARDIOVASCULAR COMPOSITIONS AND USE OF THE SAME FOR THE TREATMENT OF ALZHEIMER'S DISEASE” (MOUNT SINAI SCHOOL OF MEDICINE, priority 2006, published 2010).
Values joined by “and” are separate entries in the source; they are usually repeats but may differ in a detail not shown here. Identical values can stand only once. Counter-ions that a name gives are not always drawn. Like-named read-outs stand apart in the source and are kept apart here.

How the values were obtained:
Aβ1-40 = Aβ1-40 content in conditioned medium of primary cortico-hippocampal neuron cultures from Tg2576 mice (ELISA; primary and secondary dose-response screening); type: cell-based, mouse; conditions: for activity at 100 µM / EC50: Mus musculus; for activity at 100 µM: 24 h, read-out: Ab1-40 (% of ctl); for activity at 100 µM / Ab1-40 (% of ctl): drug 100 μM; for reduced Aβ1-40: <85% of ctl
Outline: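 Primary cortico-hippocampal neurons from embryonic Tg2576 mice were plated at 1.0×10^5 cells per well on poly-D-lysine-coated 96-well plates in Neurobasal with 2% B27, 0.5 mM L-glutamine and 1% penicillin-streptomycin. Cultures received drug in 1% DMSO, and Aβ1-40 in the conditioned medium was measured by BioSource ELISA 24 hours after treatment, relative to vehicle controls.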

Aβ1-42 [1] = assay: Aβ1-42 content in conditioned medium of primary cortico-hippocampal neuron cultures from Tg2576 mice (ELISA; primary and secondary dose-response screening); type: cell-based, mouse; conditions: for activity at 100 µM: Mus musculus, Neuron, 24 h, read-out: Ab1-42 (% of ctl); for activity at 100 µM / Ab1-42 (% of ctl): drug 100 μM; for reducing Aβ1-42: <85% of ctl
Outline: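 Primary cortico-hippocampal neurons from embryonic Tg2576 mouse brain were seeded on poly-D-lysine-coated 96-well plates at 1.0×10^5 cells per well in serum-free Neurobasal medium with 2% B27, 0.5 mM L-glutamine and 1% penicillin-streptomycin. For primary screening, duplicate wells received 100 μM drug (1% DMSO final). Vehicle-treated cultures served as controls, and Aβ1-42 in conditioned medium was measured by commercial ELISA.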

Aβ1-42 [2] = assay: as above; type: cell-based, mouse; conditions: Mus musculus; for EC50: Neuron; for activity at 100 µM: primary screening, drug 100 μM, Tg2576 neuron cultures, table sorted by Aβ1-42, read-out: Ab1-42 (% of ctl)
[3] = system: primary cortico-hippocampal neuron cultures; assay: MTT in primary screening
[4] = system: primary cortico-hippocampal neuron cultures; assay: lactate dehydrogenase (LDH) activity assay in parallel neuron cultures; conditions: for LDH at E-5M % of change: drug at E-5M; for LDH (at 5F-5 M): Table IV
Procedure: For in vitro treatments drugs available from “The Spectrum Collection” in stocks of 10 mM in DMSO were applied directly to cultures to the desired concentrations (final 1% DMSO); control primary neuron cultures from Tg2576 embryos were treated with vehicle resulting in a final 1% DMSO.
Cell viability was assessed using a commercial available LDH assay kit according to the manufacture's instruction (Promega).

[5] = Neuron, Primary Screening, table sorted by Aβ1-40
[6] = Neuron, primary screening, Tg2576 neuron cultures, table sorted by Aβ1-42
[7] = secondary dose-response screening 0.01-100 μM, 24 hours
[8] = Primary Screening, table sorted by Aβ1-40
[9] = primary screening, Tg2576 neuron cultures, table sorted by Aβ1-42
[10] = 24 h, conditioned medium of primary cortico-hippocampal neuron cultures from Tg2576 embryos, 24 hours after treatment, relative to vehicle (1% DMSO) control, read-out: EC50 (molar) Aβ1-42
[11] = 24 h, secondary dose-response screening 0.01-100 μM, 24 hours, read-out: EC50 (molar) Aβ1-42
[12] = primary screening, table sorted by Aβ1-42
[13] = Neuron, secondary dose-response screening 0.01-100 μM, 24 hours, read-out: EC50 (molar) Aβ1-40
[14] = Neuron, Table IV, dose-response 0.01-100 μM, read-out: EC50 (M): Ab-lowering activity Abeta1-40
[15] = Table IV, dose-response 0.01-100 μM, read-out: EC50 (M): Ab-lowering activity
[16] = Primary Screening, table sorted by Aβ1-40, Hydrochloride
[17] = primary screening, table sorted by Aβ1-42, Hydrochloride

Row | SMILES | activity at 100 µM (Aβ1-40; [5]) [%] | activity at 100 µM (Aβ1-40; [6]) [%] | reduced Aβ1-40 (Aβ1-40; primary screening) | activity at 100 µM (Aβ1-42 [1]; [8]) [%] | activity at 100 µM (Aβ1-42 [1]; [9]) [%] | EC50 (Aβ1-42 [2]; [10]) [M] | EC50 (Aβ1-42 [2]; [11]) [M] | MTT (% of ctl) [3, 8] | MTT (% of ctl) [3, 12] | LDH (% of ctl) [4, 8] | LDH at E-5M % of change [4] [%] | LDH (% of ctl) [4, 12] | activity at 100 µM (Aβ1-40; [9]) [%] | Ab1-40 (% of ctl) (Aβ1-40; [8]) | Ab1-42 (% of ctl) (Aβ1-42 [1]; [8]) | activity at 100 µM (Aβ1-42 [2]; 24 h) [%] | EC50 (Aβ1-40; [13]) [M] | reducing Aβ1-42 (Aβ1-42 [1]; primary screening) | also measured
1 | CCC[C@H](N[C@@H](C)C(=O)N1[C@H](C(=O)O)C[C@@H]2CCCC[C@@H]21)C(=O)OCC [Perindopril Erbumine] | 83.8 | 83.8 | reduced Aβ1-40 | 88.8 | 88.8 | 4.5e-09 | 4.05e-09 | 95.3 % of ctl | 95.3 % of ctl | 72.5 % of ctl | −5.6 | 72.5 % of ctl | – | – | – | – | – | – | EC50 (molar) Aβ1-40 (Aβ1-40; conditioned medium of primary cortico-hippocampal neuron cultures from Tg2576 embryos, 24 hours after treatment, relative to vehicle (1% DMSO) control): no fit; EC50 (molar) Aβ1-40 (Aβ1-40; [7]): no fit
2 | CCN1C[C@]2(C)CC[C@H](OC)[C@@]34C1[C@]1(OCO[C@@]15C[C@H](OC)[C@H]1C[C@]3(O)[C@@H]5[C@H]1OC)[C@@H](OC(C)=O)[C@H]24 [Deltaline] | – | – | – | – | – | – | – | 99.4 % of ctl | 99.4 % of ctl | 118.9 % of ctl | – | 118.9 % of ctl | 121 | 121.0 % of ctl | 143.0 % of ctl | 143 | – | – | –
3 | CC(COc1ccccc1)N(CCCl)Cc1ccccc1 (stereo not drawn) [Phenoxybenzamine Hydrochloride] | – | – | – | – | – | – | – | 72.8 % of ctl | 72.8 % of ctl | 81.3 % of ctl | – | 81.3 % of ctl | 87.5 | 87.5 % of ctl | 90.7 % of ctl | 90.7 | – | – | –
4 | OCCN(CCO)c1nc(N2CCCCC2)c2nc(N(CCO)CCO)nc(N3CCCCC3)c2n1 [Dipyridamole] | 72.2 | 72.2 | reduced Aβ1-40 | 62.6 | 62.6 | – | 1.24e-06 | 102.7 % of ctl | 102.7 % of ctl | 107.5 % of ctl | 6.4 | 107.5 % of ctl | – | – | – | – | 1.66e-05 | useful in reducing Aβ1-42 | –
5 | COc1cc2nc(N3CCN(C(=O)c4ccco4)CC3)nc(N)c2cc1OC [Prazosin Hydrochloride] | 7.6 | 7.6 | reduced Aβ1-40 | 23.2 | 23.2 | 6.76e-05 | 6.76e-05 | 99.9 % of ctl | 99.9 % of ctl | 260.2 % of ctl | 5.0 | 260.2 % of ctl | – | – | – | – | 0.000571 | useful in reducing Aβ1-42 | –
6 | CCOC(=O)C1=C(C)NC(C)=C(C(=O)OC)C1c1cccc([N+](=O)[O-])c1 (stereo not drawn) [Nitrendipine] | 33 | 33 | – | 64 | 64 | 1.6e-06 | 1.6e-06 | 100.8 % of ctl | 100.8 % of ctl | 94.3 % of ctl | 5.0 | 94.3 % of ctl | – | – | – | – | 0.000822 | – | –
7 | C[C@H]1O[C@@H](O[C@H]2[C@@H](O)C[C@H](O[C@H]3[C@@H](O)C[C@H](O[C@H]4CC[C@@]5(C)[C@H](CC[C@@H]6[C@@H]5CC[C@]5(C)[C@@H](C7=CC(=O)OC7)CC[C@]65O)C4)O[C@@H]3C)O[C@@H]2C)C[C@H](O)[C@@H]1O [Digitoxin] | – | – | reduced Aβ1-40 | – | – | – | – | 86.0 % of ctl | 86.0 % of ctl | 106.4 % of ctl | – | 106.4 % of ctl | 68.3 | 68.3 % of ctl | 92.9 % of ctl | 92.9 | – | – | –
8 | CC(NCCC(c1ccccc1)c1ccccc1)c1ccccc1 (stereo not drawn) [Fendiline Hydrochloride] | 7.9 | 7.9 | reduced Aβ1-40 | 26.2 | 26.2 | – | 4.2e-05 | 7.7 % of ctl | 7.7 % of ctl | 1881.4 % of ctl | −3.0 | 1881.4 % of ctl | – | – | – | – | 1.25e-05 | useful in reducing Aβ1-42 | –
9 | Cc1ccc(N(CC2=NCCN2)c2cccc(O)c2)cc1 [Phentolamine Hydrochloride] | 83.4 | 83.4 | reduced Aβ1-40 | 72.9 | 72.9 | – | 8.65e-08 | 110.3 % of ctl | 110.3 % of ctl | 90.7 % of ctl | −3.4 | 90.7 % of ctl | – | – | – | – | 1.21e-05 | useful in reducing Aβ1-42 | –
10 | NCCc1cc(O)c(O)cc1O [Oxidopamine Hydrochloride] | – | – | reduced Aβ1-40 | – | – | – | – | 121.5 % of ctl | 121.5 % of ctl | 103.6 % of ctl | – | 103.6 % of ctl | 43.8 | 43.8 % of ctl | 36.4 % of ctl | 36.4 | – | useful in reducing Aβ1-42 | –
11 | COc1ccccc1OCCNCC(O)COc1cccc2[nH]c3ccccc3c12 (stereo not drawn) [Carvedilol] | 38.3 | 38.3 | reduced Aβ1-40 | 30.8 | 30.8 | 0.000132 | 0.000132 | 66.7 % of ctl | 66.7 % of ctl | 148.6 % of ctl | – | 148.6 % of ctl | – | – | – | – | 6.61e-05 | useful in reducing Aβ1-42 | EC50 (Aβ1-40; [14]): 6.61e-05 M; EC50 (Aβ1-42 [2]; [15]): 0.000132 M; LDH (at 5F-5 M) [4]: no change
12 | CC(COc1ccccc1)NC(C)C(O)c1ccc(O)cc1 (stereo not drawn) [Isoxsuprine Hydrochloride] | 78.3 | 78.3 | reduced Aβ1-40 | 83.7 | 83.7 | – | 8.07e-06 | – | – | – | 5.0 | – | – | – | – | – | – | useful in reducing Aβ1-42 | EC50 (molar) Aβ1-40 (Aβ1-40; [7]): no fit; MTT (% of ctl) [3, 16]: 99.8 % of ctl and 93.1 % of ctl; MTT (% of ctl) [3, 17]: 99.8 % of ctl and 93.1 % of ctl; LDH (% of ctl) [4, 16]: 106.2 % of ctl and 107.7 % of ctl; LDH (% of ctl) [4, 17]: 106.2 % of ctl and 107.7 % of ctl
13 | NNc1nncc2ccccc12 [Hydralazine Hydrochloride] | 66.1 | 66.1 | reduced Aβ1-40 | 63.2 | 63.2 | – | 1.04e-05 | 95.7 % of ctl | 95.7 % of ctl | 101.1 % of ctl | −1.2 | 101.1 % of ctl | – | – | – | – | 9.29e-06 | useful in reducing Aβ1-42 | EC50 (Aβ1-40; [14]): 9.29e-06 M; EC50 (Aβ1-42 [2]; [15]): 1.04e-05 M; LDH (at 5F-5 M) [4]: no change
